Laboratory results reported in patent US20240360157A1, “TYK2 INHIBITORS” (BIOGEN MA INC., priority 2021, published 2024).
Where a name gives a salt, the structure may show the parent alone.

Key:
Format in all cases: biochemical
[1] = target: human TYK2 catalytic kinase (JH1) domain (Homo sapiens (Human), UniProt P29597); assay: ADP-Glo Kinase Assay, recombinant TYK2 catalytic kinase (JH1) domain; conditions: recombinant JH1 domain 2 nM, 10 μM ATP, JAK3-974 peptide, mean, read-out: TYK2 biochem IC50 (nM) Mean
Description: (§1) Compounds of the disclosure were assessed for their ability to inhibit TYK2, JAK1, JAK2, and JAK3 activity. The inhibitory properties of the compounds of the disclosure described herein can be evidenced by testing in any one of the following protocols.
(§2) The kinase activity of recombinantly generated catalytic kinase (also known as JH1) domain of human JAK1, JAK2, JAK3 and TYK2 were evaluated in a plate-based assay using the ADP-Glo™ Kinase Assay platform. Specifically, 4 nM of recombinant JAK1 kinase domain is used to phosphorylate 50 μM of a JAK3-342 (sequence ALVDGYFRLTT) peptide in the presence of 35 μM ATP. Catalytic activities of recombinant JAK2, JAK3 and TYK2 kinase domain (0.2, 0.3 and 2 nM, respectively) are evaluated by the phosphorylation status of the JAK3-974 (50 μM; sequence LPLDKDYYVVR) peptide with the addition of ATP (15, 4 and 10 μM, respectively). The reactions proceed for 100 minutes and the catalytic activity is quantified by first depleting the unused ATP, converting the hydrolyzed ADP into ATP to generate luminescence in a luciferase reaction; which is the basis of the ADP-Glo platform. Compounds are tested at either 10 μM or 1 μM top concentration, 11 points of 3-fold dilution. The data is normalized and the percent activity versus log concentration of compound is fitted with a 4-parameter logistic model to generate a curve and an IC50 value.

[2] = target: human JAK1 catalytic kinase (JH1) domain (Homo sapiens (Human), UniProt P23458); assay: ADP-Glo Kinase Assay, recombinant JAK1 catalytic kinase (JH1) domain; conditions: recombinant JH1 domain 4 nM, 35 μM ATP, JAK3-342 peptide, mean, read-out: JAK1 biochem IC50 (nM) Mean
Description: as §1, §2

[3] = target: human JAK2 catalytic kinase (JH1) domain (Homo sapiens (Human), UniProt O60674); assay: ADP-Glo Kinase Assay, recombinant JAK2 catalytic kinase (JH1) domain; conditions: recombinant JH1 domain 0.2 nM, 15 μM ATP, JAK3-974 peptide, mean, read-out: JAK2 biochem IC50 (nM) Mean
Description: as §1, §2

[4] = target: human JAK3 catalytic kinase (JH1) domain (Homo sapiens (Human), UniProt P52333); assay: ADP-Glo Kinase Assay, recombinant JAK3 catalytic kinase (JH1) domain; conditions: recombinant JH1 domain 0.3 nM, 4 μM ATP, JAK3-974 peptide, mean, read-out: JAK3 biochem IC50 (nM) Mean
Description: as §1, §2

Chain of human JAK2 catalytic kinase (JH1) domain (O60674 849-1124): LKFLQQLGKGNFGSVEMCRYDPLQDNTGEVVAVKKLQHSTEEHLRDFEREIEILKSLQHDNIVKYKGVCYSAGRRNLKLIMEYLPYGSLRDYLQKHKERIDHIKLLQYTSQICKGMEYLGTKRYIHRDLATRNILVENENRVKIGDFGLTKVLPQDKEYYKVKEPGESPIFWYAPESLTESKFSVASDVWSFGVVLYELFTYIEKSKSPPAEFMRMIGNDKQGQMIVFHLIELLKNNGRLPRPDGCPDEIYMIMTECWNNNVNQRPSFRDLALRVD
Chain of human JAK1 catalytic kinase (JH1) domain (P23458 875-1153): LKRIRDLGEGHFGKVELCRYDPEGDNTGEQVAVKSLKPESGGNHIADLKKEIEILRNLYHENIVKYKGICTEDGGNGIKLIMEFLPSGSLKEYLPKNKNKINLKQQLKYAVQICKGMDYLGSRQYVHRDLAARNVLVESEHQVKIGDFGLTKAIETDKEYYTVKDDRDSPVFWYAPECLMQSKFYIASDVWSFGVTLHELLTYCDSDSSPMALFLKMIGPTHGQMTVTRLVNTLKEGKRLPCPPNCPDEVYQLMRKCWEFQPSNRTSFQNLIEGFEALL
Chain of human TYK2 catalytic kinase (JH1) domain (P29597 897-1176): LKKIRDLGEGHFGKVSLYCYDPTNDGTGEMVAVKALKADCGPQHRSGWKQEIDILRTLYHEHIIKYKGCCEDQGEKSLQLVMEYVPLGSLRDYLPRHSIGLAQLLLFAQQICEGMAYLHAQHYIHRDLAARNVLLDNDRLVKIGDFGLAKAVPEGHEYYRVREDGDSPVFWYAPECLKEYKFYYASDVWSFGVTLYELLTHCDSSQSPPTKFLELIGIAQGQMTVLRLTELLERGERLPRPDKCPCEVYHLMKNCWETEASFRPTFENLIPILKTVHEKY
Chain of human JAK3 catalytic kinase (JH1) domain (P52333 822-1111): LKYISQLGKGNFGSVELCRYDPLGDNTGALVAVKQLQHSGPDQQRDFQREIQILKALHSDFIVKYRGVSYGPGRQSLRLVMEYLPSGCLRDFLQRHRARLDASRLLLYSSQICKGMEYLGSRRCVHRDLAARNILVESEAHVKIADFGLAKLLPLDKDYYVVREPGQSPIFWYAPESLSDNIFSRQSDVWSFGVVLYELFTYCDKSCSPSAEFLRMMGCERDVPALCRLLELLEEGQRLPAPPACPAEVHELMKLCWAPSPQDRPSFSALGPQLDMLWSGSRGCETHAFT

Structure (SMILES) | IC50 [1] | IC50 [2] | IC50 [3] | IC50 [4]
O=C([C@@H]1C[C@H]1F)N1C2CCC1CN(c1ccnn3cc(-c4ccnc(OC(F)F)c4)cc13)C2 [Example 111, (3-(6-(2-(difluoromethoxy)pyridin-4-yl)pyrrolo[1,2-b]pyridazin-4-yl)-3,8-diazabicyclo[3.2.1]octan-8-yl)((1S,2R)-2-fluorocyclopropyl)methanone] | 3.6 nM | 62 nM | 57 nM | 981 nM
COc1ccc(-c2cc3c(N4CC5CCC(C4)N5C(=O)C4CC4)ncnn3c2)cc1C#N [Example 185] | 398 nM | 2540 nM | 10000 nM | 10000 nM
Cc1ccc(-c2cc3c(N4CC5CCC(C4)N5C(=O)[C@@H]4C[C@H]4F)ccnn3c2)nn1 [Example 125, ((1S,2R)-2-fluorocyclopropyl)(3-(6-(6-methylpyridazin-3-yl)pyrrolo[1,2-b]pyridazin-4-yl)-3,8-diazabicyclo[3.2.1]octan-8-yl)methanone] | 8.8 nM | 236 nM | 49 nM | 1010 nM
CC(C)(F)C(=O)N1C2CCC1CN(c1ncnn3cc(-c4cnn(C(F)F)c4)cc13)C2 [Example 32, 1-(3-(6-(1-(difluoromethyl)-1H-pyrazol-4-yl)pyrrolo[2,1-f][1,2,4]triazin-4-yl)-3,8-diazabicyclo[3.2.1]octan-8-yl)-2-fluoro-2-methylpropan-1-one trifluoroacetate] | 242 nM | 1800 nM | 4400 nM | 2990 nM
O=C([C@@H]1C[C@H]1F)N1C2CCC1CN(c1ncnn3cc(-c4ccnc(C(F)F)c4)cc13)C2 [Example 93, (3-(6-(2-(difluoromethyl)pyridin-4-yl)pyrrolo[2,1-f][1,2,4]triazin-4-yl)-3,8-diazabicyclo[3.2.1]octan-8-yl)((1S,2R)-2-fluorocyclopropyl)methanone] | 29.2 nM | 386 nM | 591 nM | 3300 nM
O=C(C1CC(F)C1)N1C2CCC1CN(c1ncnn3cc(-c4cnn(C(F)F)c4)cc13)C2 (stereo not shown) [Example 48, (3-(6-(1-(difluoromethyl)-1H-pyrazol-4-yl)pyrrolo[2,1-f][1,2,4]triazin-4-yl)-3,8-diazabicyclo[3.2.1]octan-8-yl)(3-fluorocyclobutyl)methanone] | 483 nM | 3780 nM | 8770 nM | 9430 nM
O=C([C@@H]1C[C@H]1F)N1C2CCC1CN(c1ccnn3cc(-c4ccnc(F)c4)cc13)C2 [Example 170] | 1.2 nM | 25 nM | 36 nM | 344 nM
O=C([C@H]1C[C@H](C(F)(F)F)C1)N1C2CCC1CN(c1ncnn3cc(-c4cnn(C(F)F)c4)cc13)C2 [Example 28, (3-(6-(1-(difluoromethyl)-1H-pyrazol-4-yl)pyrrolo[2,1-f][1,2,4]triazin-4-yl)-3,8-diazabicyclo[3.2.1]octan-8-yl)((1r,3r)-3-(trifluoromethyl)cyclobutyl)methanone] | 636 nM | 2140 nM | 10000 nM | 10000 nM
O=C(N1C2CCC1CN(c1ncnn3cc(-c4cnn(C(F)F)c4)cc13)C2)C1(F)CC1 [Example 50, (3-(6-(1-(difluoromethyl)-1H-pyrazol-4-yl)pyrrolo[2,1-f][1,2,4]triazin-4-yl)-3,8-diazabicyclo[3.2.1]octan-8-yl)(1-fluorocyclopropyl)methanone] | 295 nM | 1040 nM | 6150 nM | 2020 nM
O=C([C@H]1C[C@H]1F)N1C2CCC1CN(c1ncnn3cc(-c4cnn(C(F)F)c4)cc13)C2 (single isomer, unassigned) [Example 73] | 987 nM | 2350 nM | ≥ 10000 nM | 8860 nM
Cn1cc(-c2cc3c(N4CC5CCC(C4)N5C(=O)[C@@H]4C[C@H]4F)ccnn3c2)cn1 [Example 159, ((1S,2R)-2-fluorocyclopropyl)(3-(6-(1-methyl-1H-pyrazol-4-yl)pyrrolo[1,2-b]pyridazin-4-yl)-3,8-diazabicyclo[3.2.1]octan-8-yl)methanone] | 1.1 nM | 51 nM | 30 nM | 263 nM
Cn1cc(-c2cc3c(N4CC5CCC(C4)N5C(=O)[C@@H]4C[C@H]4F)ccnc3[nH]2)cn1 [Example 238, ((1S,2R)-2-fluorocyclopropyl)(3-(2-(1-methyl-1H-pyrazol-4-yl)-1H-pyrrolo[2,3-b]pyridin-4-yl)-3,8-diazabicyclo[3.2.1]octan-8-yl)methanone] | 0.1 nM | 10 nM | 6 nM | 61 nM
COc1cc(-c2cn3ncc(F)c(N4CC5CCC(C4)N5C(=O)[C@@H]4C[C@H]4F)c3n2)ccn1 (stereo in doubt) [Example 142, (3-(7-fluoro-2-(2-methoxypyridin-4-yl)imidazo[1,2-b]pyridazin-8-yl)-3,8-diazabicyclo[3.2.1]octan-8-yl)((1S,2R)-2-fluorocyclopropyl)methanone] | 19.6 nM | 46 nM | 270 nM | 514 nM
Cn1cc(-c2cc3c(N4CC5CCC(C4)N5C(=O)C4CC4)ncnn3c2)cn1 [Example 146, cyclopropyl(3-(6-(1-methyl-1H-pyrazol-4-yl)pyrrolo[2,1-f][1,2,4]triazin-4-yl)-3,8-diazabicyclo[3.2.1]octan-8-yl)methanone] | 166 nM | 1880 nM | 5850 nM | 3240 nM
O=C([C@@H]1C[C@H]1F)N1C2CCC1CN(c1ccnn3cc(C4CC4)cc13)C2 [Example 24, (3-(6-cyclopropylpyrrolo[1,2-b]pyridazin-4-yl)-3,8-diazabicyclo[3.2.1]octan-8-yl)((1S,2R)-2-fluorocyclopropyl)methanone] | 164 nM | 2740 nM | 5900 nM | 9080 nM
N#Cc1cc(-c2cc3c(N4CC5CCC(C4)N5C(=O)[C@@H]4C[C@H]4F)ncnc3[nH]2)ccn1 [Example 233, 4-(4-(8-((1S,2R)-2-fluorocyclopropane-1-carbonyl)-3,8-diazabicyclo[3.2.1]octan-3-yl)-7H-pyrrolo[2,3-d]pyrimidin-6-yl)picolinonitrile] | 15.4 nM | 174 nM | 248 nM | 3240 nM
CNc1ccc(-c2cc3c(N4CC5CCC(C4)N5C(=O)[C@@H]4C[C@H]4F)ccnn3c2)cn1 [Example 129, ((1S,2R)-2-fluorocyclopropyl)(3-(6-(6-(methylamino)pyridin-3-yl)pyrrolo[1,2-b]pyridazin-4-yl)-3,8-diazabicyclo[3.2.1]octan-8-yl)methanone] | 3.8 nM | 69 nM | 73 nM | 658 nM
CC1C(C(=O)N2C3CCC2CN(c2ncnn4cc(-c5cnn(C(F)F)c5)cc24)C3)C1(F)F (stereo not shown) [Example 5, (2,2-difluoro-3-methylcyclopropyl)(3-(6-(1-(difluoromethyl)-1H-pyrazol-4-yl)pyrrolo[2,1-f][1,2,4]triazin-4-yl)-3,8-diazabicyclo[3.2.1]octan-8-yl)methanone] | 93.1 nM | 707 nM | 3050 nM | 3700 nM
O=C(C1CC1)N1C2CCC1CN(c1ncnn3cc(-c4cnn(C5CCC5)c4)cc13)C2 [Example 149] | 141 nM | 942 nM | 3130 nM | 3010 nM
